| SMILES | melting point |
| --- | --- |
| CC(C)(C)c1cccc(CNC(c2ccccc2)C(NCc2cccc(C(C)(C)C)c2O)c2ccccc2)c1O (configuration not stated) | 143 to 144 °C |
| c1ccc(NN2Cc3ccccc3C2)nc1 | 130 to 131 °C |
| CC(=NOCCOc1ccc(C[C@H](Oc2ccc(C(C)(C)C)cc2)C(=O)O)cc1)c1ccc(-c2ccccn2)cc1 | 148 to 150 °C |
| O=C(O)CCNC(=O)OCC(Cl)(Cl)Cl | 89.4 to 91 °C |
| CC(C)(Oc1ccc2c(c1)CC(NCc1ccccc1)CC2)C(=O)O (configuration not stated) | 240 to 242 °C |
| CCCCc1nc2c(N)nc3ccccc3c2n1CCCCO | 184 to 186 °C |
| O=C1N(CC2CCOCC2)c2ccccc2C12COc1cc3c(cc12)OCCO3 (configuration not stated) | 129 to 131 °C |
| CSCc1nc2c(N)nc3ccccc3c2n1Cc1ccccc1 | 217 to 219 °C |
| CCCOc1ccccc1-c1nc(O)cc(C#N)n1 | 135 to 136 °C |
| COc1cc2c3ccc(OC)c(OC)c3n(Cc3c(Cl)cccc3Cl)c2cc1OC | 207 to 210 °C |
| CC1(C)SC(=O)N(Cc2ccccc2[N+](=O)[O-])C1O (configuration not stated) | 139 to 143 °C |
| CCCCCCCCCCCC(=O)c1ccc(-c2ccc(O)c(F)c2)cc1 | 123 to 124 °C |
| CCCCOCCOc1ccc(-c2cnc(N3CCC(C)C3)c(/C=C(\C)C(=O)O)c2)cc1 (configuration not stated) | 106 to 108 °C |
| O=C(OCCOc1ccc2ncnn2n1)N1CCN(C(c2ccccc2)c2ccccc2)CC1 | 157 to 159 °C |
| CCCCOC(=O)COCCCNC(=O)[C@H](C)NC(=O)OCc1ccccc1 | 54 to 55 °C |
| Cc1noc(NS(=O)(=O)c2ccccc2-c2ccc(CC(C)C)cc2NC=O)c1C | 87 to 95 °C |
| Cc1cccnc1C1CC(C)(C)Oc2ccc([N+](=O)[O-])cc21 (configuration not stated) | 164 to 165 °C |
| CN(C(=O)CCNC#N)c1nnc(-c2cccnc2)s1 | 155 to 159 °C |
| CC(C)c1ccc(OCCCCCCCCCCCCC(Cl)(Cl)C(=O)O)cc1 | 47 to 49 °C |
| CCOC(=O)Nc1cc(Cl)nc(NC(=O)OCC)n1 | 153 to 154 °C |
| Fc1ccc2c(c1)Cc1cc(F)ccc1O2 | 117 to 118 °C |
| CCOC(=O)c1cc(C#N)c(C=O)nc1NC | 137 to 139 °C |
| NCC1Cc2cc(-c3ccc(F)cc3)cc(F)c2O1 (configuration not stated) | > 250 °C |

| SMILES | melting point |
| --- | --- |
| CCCCCCCCSc1cc(SCCCCCCCC)c2ccc3c(SCCCCCCCC)cc(SCCCCCCCC)c4ccc1c2c43 | 110 °C |
| COC(=O)c1cscc1Nc1ccc(F)cc1[N+](=O)[O-] | 164 °C |
| Oc1ccc(-c2cnc(-c3ccccc3)[nH]c2=S)cc1O | 220 °C |
| CCSC1=C(c2ccc(O)cc2)C(=O)c2ccc(O)cc21 | 100 to 102 °C |
| Cc1oc(-c2ccccc2)nc1COc1ccc(CCOS(C)(=O)=O)cc1 | 66 to 67 °C |
| Cc1nc2ccccn2c1CN1CCC(Nc2nc3ccccc3n2Cc2ccc(F)cc2)CC1 | 198 °C |
| NC(=O)c1[nH]cnc1OC(=O)C=Cc1ccccc1 | 170 to 175 °C |
| O=[N+]([O-])c1ccc(C(=NO)c2ccc([N+](=O)[O-])cc2)cc1 | 194 °C |
| CCCCCCCCCCCCCCOC(=O)c1cc(C(=O)OCCCCCCCCCCCCCC)cc(N(CC(=O)O)CC(=O)O)c1 | 84 to 87 °C |
| Cc1nc(-c2nn(Cc3ccccc3F)c3ccccc23)oc1CO | 144 °C |
| CC(Oc1ccc(-c2ccc(Cl)cc2)cc1)(C(=O)O)C(F)(F)F (configuration not stated) | 198 to 199 °C |
| COC(=O)c1cccc2nc(OCC(F)(F)F)n(Cc3ccc(-c4ccccc4C#N)cc3)c12 | 143 to 145 °C |
| O=C(Nc1nnn[nH]1)c1ccc2nc3ccsc3c(=O)n2c1 | 295 to 296 °C |
| COc1ccc(COc2cccc3cc(NS(=O)(=O)C(F)(F)F)ccc23)cc1Cl | 129 to 130 °C |
| Cc1ccc(CNC(=O)c2ccc3n2Cc2ccccc2N(C(=O)COc2ccc(Cl)cc2)C3)cc1 | 174 to 176 °C |
| COc1cc(OC)nc(Sc2sccc2NS(=O)(=O)C(F)(F)F)n1 | 103 to 104 °C |
| CN1C(=O)CN=C(c2ccccc2F)c2c1ccc(NC(=O)Nc1ccc(Cl)cc1)c2Cl | 285 °C |
| CCOC(CC)=NS(=O)(=O)c1nc(-c2ccccc2)ns1 | 98 to 100 °C |
| O=C1C(c2ccccc2)=C(c2ccccc2)C(=O)N1CC(=O)N1c2ccccc2N(Cc2ccccc2)C(=O)C2CCCC21 (configuration not stated) | 207 to 208 °C |
| CCCCCCCCCCCCCCCCCC(=O)c1ccc(C2=NC(C)(C)CO2)c(Cl)c1 | 57 to 60 °C |
| O=C(O)CNC(=O)Cc1ccccc1S | 91 to 93 °C |
| O=C(O)C1=Nc2ccc3c(c2=C1)=CCO3 | 183 to 184 °C |
| CC(C)(C)CCOc1c(-c2ccc(S(C)(=O)=O)cc2)cnn(CC(F)(F)F)c1=O | 83 to 85 °C |

| SMILES | melting point |
| --- | --- |
| CN1CC(CO)C=C2c3cccc4c3c(cn4C)CC21 (configuration not stated) | 216 to 217 °C |
| CCCCCCCCCCCCN(CCCCCCCCCCCC)C(=O)c1c(C)cc(C)c(C)c1O | 56 °C |
| CCCc1c(OCCCC#CC(=O)NCCCCc2cccnc2)ccc(C(C)=O)c1O | 84 to 86 °C |
| O=C(NC/C=C\COc1cc(CN2CCCCC2)ccn1)c1cc(-c2ccccc2)on1 | 105 to 106 °C |
| Cc1ccc(F)cc1C(=O)Nc1ccc(C(=O)N2Cc3cccn3Cc3ccccc32)cc1 | 170 to 180 °C |
| COc1cc(S(=O)(=O)c2ccccc2)ccc1[N+](=O)[O-] | 128 to 130 °C |
| CCCCn1c2ccccc2c2cc(C(=O)O)ncc21 | 182 to 184 °C |
| COc1ncc(-c2nn(C(C)c3oc4ccccc4c(=O)c3-c3cccc(F)c3)c3ncnc(N)c23)c(OC)n1 (configuration not stated) | 286 to 290 °C |
| O=C1c2ccccc2C(=O)N1CC#Cc1ccc(Cl)cc1C(O)c1ccccc1F (configuration not stated) | 158 to 160 °C |
| N#Cc1c(Nc2ccccc2)cccc1Oc1ccccc1 | 146 to 147 °C |
| O=C(O)c1ccc(C(F)(F)F)cc1SC1CCCCC1 | 115 to 116 °C |
| COc1ccccc1NC(=O)NC1CC(N)(C(=O)O)C2C(C(=O)O)C12 (configuration not stated) | > 250 °C |
| O=c1ccc2c(-c3ccc(O)cc3)nccc2[nH]1 | > 300 °C |
| O=C(O)[C@@H]1CCCN1C(=O)c1ccccc1 | 152 to 154 °C |
| COc1ccc(CNCC(O)c2ccccc2)cc1OC (configuration not stated) | 93 to 94 °C |
| CCOC(=O)Cc1ccc(-c2nc(COc3ccc(COc4nn(-c5ccccc5)cc4/C=C\c4csc(CC)n4)cc3OC)c(C)o2)cc1 | 136 to 137 °C |
| CC(=NOCc1ccccc1)c1cccc(S(N)(=O)=O)c1 | 136 to 139 °C |
| N#CC1(Nc2cccc(Cl)c2)CCN(C(=O)c2cc(C(F)(F)F)cc(C(F)(F)F)c2)CC1 | 205 to 207 °C |
| O=C(Nc1cccc(SC(F)(F)F)c1)c1ccc2ccccc2c1O | 154 °C |
| O=Cc1ccc2cc3c(cc2c1)sc1ccccc13 | 182 to 185 °C |
| CC(C)[C@H](C[C@H](O)[C@H](C)NC(=O)OC(C)(C)C)C(=O)NCCN | 55 to 62 °C |
| CCCCOC(=O)c1cc(Oc2ccc3c(C(=O)Nc4cccc(C(F)(F)F)c4)cccc3c2)ccn1 | 128 to 130 °C |
| O=C(O)C1CCc2c(c3ccccc3n2Cc2ccccc2)C1 (configuration not stated) | 195 to 196 °C |

The remaining lines, values ahead:

| melting point | SMILES |
| --- | --- |
| 150 to 151 °C | CN1CCNC(=O)N1c1cc(Cl)cc(Cl)c1 |
| 74 to 76 °C | COC(=O)c1cc(Cl)c(Cl)c(C2=NOCC2)c1C |
| 270 to 273 °C | CCOC(=O)c1sc(-n2ccc(O)cc2=O)nc1C |
| 178 to 180 °C | Cc1cccc(Cl)c1N(C)S(=O)(=O)c1nc2scc(C)n2n1 |
| 224 to 225 °C | CCC(C)NC1=NS(=O)(=O)c2sc(C)cc2N1 (configuration not stated) |
| 227 to 229 °C | COC(=O)c1cc(=O)c2c(C)cc(C)cc2[nH]1 |
| 69 to 70 °C | CCc1cc2cc(O)c(Cl)c(Cl)c2s1 |
| 193 °C | COc1cc([N+](=O)[O-])ccc1S(=O)(=O)n1c(=O)n(C2CCCCCC2)c2cc(Cl)ccc21 |
| 190 to 191 °C | CCOC1=NS(=O)(=O)c2cccc([N+](=O)[O-])c21 |
| 35 to 36 °C | c1ccc(OCCCCN2CCNCC2)cc1 |
| 200 to 202 °C | CCC1(NC(=O)c2cc(OC)ccn2)CCCCn2c1nc(-c1ccncn1)cc2=O (racemic) |
| 176 °C | COC(=O)C1=C(C)NN=C(c2cccc(Cl)c2)C1c1ccccc1 (configuration not stated) |
| 202 °C | CN1CCN(C2=Nc3cc(C(F)(F)F)ccc3Nc3cscc32)CC1 |
| 115 °C | COC(=O)CCCc1cc2nc(Cl)ccc2n1S(=O)(=O)c1ccccc1OC |
| 229 to 230 °C | CC1(C)CCC(C)(C)c2cc3cc(-c4ccc(C(=O)O)o4)ccc3cc21 |
| 168 to 172 °C | COc1ccc(NC(=O)c2coc3c2C(=O)CCCC3)c(F)c1 |
| 182 to 184 °C | COc1ccc2c(c1)CCC1CCNC(=O)C(CSC)=C21 (configuration not stated) |

| melting point | SMILES |
| --- | --- |
| 205 to 211 °C | Nc1ccc2c(c1)OCC(=S)N2 |
| 212 to 213 °C | CN1CCC(c2c(O)cc(O)c3c(=O)cc(-c4ccccc4O)oc23)C1CO (configuration not stated) |
| 160 to 164 °C | FC1(F)N=c2cc3c(cc2=N1)OC(Br)O3 |
| 265 to 266 °C | Cc1ccc2c3c(ncc2c1)CCC(=O)N3 |
| 179 to 180 °C | COc1ccc2c(cc3n2CCc2ccccc2-3)n1 |
| 104 to 105 °C | Nc1cc(Cl)ccc1CO |
| > 270 °C | CCn1c(=O)c2[nH]c(/C=C/c3ccc(F)cc3)nc2n(CC)c1=O |
| 81 to 82 °C | CCCCCCCCNC1=CC(=O)c2c(OC)ccc(OC)c2C1=O |
| 172 to 175 °C | Cc1cn(C2CC(O)C(C(O)I)O2)c(=O)[nH]c1=O (configuration not stated) |
| 209 to 210 °C | Cc1cc(-c2nc3cc(Cl)cc(Cl)c3c(=O)[nH]2)cc(C)c1OCCN1CCCC1 |
| 156 to 158 °C | Cc1sc2c(c1C(=O)c1ccc([N+](=O)[O-])cc1)CCC2C(=O)O (configuration not stated) |
| 276 to 278 °C | O=[N+]([O-])c1ccc2c(c1)S(=O)(=O)N=C(NCC1CC1)N2 |
| 97 to 98 °C | CSCCNC(=O)c1sc(-c2cccnc2)nc1Cl |
| 170 °C | Cc1ccc(=NC(=O)C(F)(F)F)n(Cc2ccc(Cl)s2)c1 |
| 110 °C | O=C1C=CC(=O)c2ncccc21 |
| 78 to 79 °C | COC(=O)c1cc(OC)c(Br)cc1Cl |
